PubChem BioAssay AID2060604 (Molecular Pharmacology Branch, DTP, NCI, 2025)

Test system: 379773-124-R-J2-PDC complex spheroids, viability % test/control
Assay: Anticancer human tumor 379773-124-R-J2-PDC patient-derived endometrial carcinoma cell line growth inhibition [CLK]
Settings: for IC50: curve of first compound; for viability, T/C: stronger effect = lower value; active = viability on the fitted dose curve at most 10% of control; inactive = the rest
In short: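 Multi-cell-type spheroids combined patient-derived tumor cells with HUVEC endothelial cells and human mesenchymal stem cells. Paired agents were dosed in half-log steps down from about clinical Cmax, or from 10 microM where Cmax was unknown.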
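Note: compound exposure lasted seven days before the viability readout.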
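Throughout, for viability, T/C: 100% = DMSO vehicle control wells.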

C=CC(=O)Nc1cc(Nc2nccc(-c3cn(C)c4ccccc34)n2)c(OC)cc1N(C)CCN(C)C + CN1CCN(c2cc(C(=O)Nc3cc4cc(-c5cnn(C)c5)ccc4cn3)ccn2)CC1
inactive: viability, T/C (second compound 0.0316 µM, first compound 0.000949 µM) 100% | viability, T/C (second compound 0.0316 µM, first compound 0.003 µM) 93.1% | viability, T/C (second compound 0.0316 µM, first compound 0.00949 µM) 99.4% | viability, T/C (second compound 0.0316 µM, first compound 0.03 µM) 84.7% | viability, T/C (second compound 0.0316 µM, first compound 0.0949 µM) 96% | viability, T/C (second compound 0.0316 µM, first compound 0.3 µM) 89.7% | viability, T/C (second compound 0.1 µM, first compound 0.000949 µM) 80.4% | viability, T/C (second compound 0.1 µM, first compound 0.003 µM) 74% | viability, T/C (second compound 0.1 µM, first compound 0.00949 µM) 102% | viability, T/C (second compound 0.1 µM, first compound 0.03 µM) 84% | viability, T/C (second compound 0.1 µM, first compound 0.0949 µM) 76.2% | viability, T/C (second compound 0.1 µM, first compound 0.3 µM) 84.6% | viability, T/C (second compound 0.316 µM, first compound 0.000949 µM) 20.2% | viability, T/C (second compound 0.316 µM, first compound 0.003 µM) 31.4% | viability, T/C (second compound 0.316 µM, first compound 0.00949 µM) 34% | viability, T/C (second compound 0.316 µM, first compound 0.03 µM) 34% | viability, T/C (second compound 0.316 µM, first compound 0.0949 µM) 29.6% | viability, T/C (second compound 0.316 µM, first compound 0.3 µM) 20.9%
< 0.949 nM: IC50 (second compound 0.316 µM) | IC50 (second compound 1 µM) | IC50 (second compound 3.16 µM) | IC50 (second compound 10 µM)
> 300 nM: IC50 (second compound 0.0316 µM) | IC50 (second compound 0.1 µM)
active: viability, T/C (second compound 1 µM, first compound 0.000949 µM) 0.28% | viability, T/C (second compound 1 µM, first compound 0.003 µM) 1.12% | viability, T/C (second compound 1 µM, first compound 0.00949 µM) 1.77% | viability, T/C (second compound 1 µM, first compound 0.03 µM) 0.18% | viability, T/C (second compound 1 µM, first compound 0.0949 µM) 1.57% | viability, T/C (second compound 1 µM, first compound 0.3 µM) 0.13% | viability, T/C (second compound 3.16 µM, first compound 0.000949 µM) 1.26% | viability, T/C (second compound 3.16 µM, first compound 0.003 µM) 0.19% | viability, T/C (second compound 3.16 µM, first compound 0.00949 µM) 0.82% | viability, T/C (second compound 3.16 µM, first compound 0.03 µM) 1.59% | viability, T/C (second compound 3.16 µM, first compound 0.0949 µM) 0.11% | viability, T/C (second compound 3.16 µM, first compound 0.3 µM) 0.61% | viability, T/C (second compound 10 µM, first compound 0.000949 µM) 0.28% | viability, T/C (second compound 10 µM, first compound 0.003 µM) 0.45% | viability, T/C (second compound 10 µM, first compound 0.00949 µM) 0.46% | viability, T/C (second compound 10 µM, first compound 0.03 µM) 0.59% | viability, T/C (second compound 10 µM, first compound 0.0949 µM) 0.28% | viability, T/C (second compound 10 µM, first compound 0.3 µM) 0.26%

CC1(C)CCC(CN2CCN(c3ccc(C(=O)NS(=O)(=O)c4ccc(NCC5CCOCC5)c([N+](=O)[O-])c4)c(Oc4cnc5[nH]ccc5c4)c3)CC2)=C(c2ccc(Cl)cc2)C1 + CN1CCN(c2cc(C(=O)Nc3cc4cc(-c5cnn(C)c5)ccc4cn3)ccn2)CC1
active: viability, T/C (second compound 0.0316 µM, first compound 10 µM) 6.08% | viability, T/C (second compound 0.1 µM, first compound 10 µM) 1.06% | viability, T/C (second compound 1 µM, first compound 0.0316 µM) 0.19% | viability, T/C (second compound 1 µM, first compound 0.1 µM) 1.14% | viability, T/C (second compound 1 µM, first compound 0.316 µM) 0.4% | viability, T/C (second compound 1 µM, first compound 1 µM) 0.16% | viability, T/C (second compound 1 µM, first compound 3.16 µM) 0.08% | viability, T/C (second compound 1 µM, first compound 10 µM) 0.07% | viability, T/C (second compound 3.16 µM, first compound 0.0316 µM) 0.86% | viability, T/C (second compound 3.16 µM, first compound 0.1 µM) 0.92% | viability, T/C (second compound 3.16 µM, first compound 0.316 µM) 2.05% | viability, T/C (second compound 3.16 µM, first compound 1 µM) 0.09% | viability, T/C (second compound 3.16 µM, first compound 3.16 µM) 0.64% | viability, T/C (second compound 3.16 µM, first compound 10 µM) 0.09% | viability, T/C (second compound 10 µM, first compound 0.0316 µM) 0.1% | viability, T/C (second compound 10 µM, first compound 0.1 µM) 0.14% | viability, T/C (second compound 10 µM, first compound 0.316 µM) 0.15% | viability, T/C (second compound 10 µM, first compound 1 µM) 0.61% | viability, T/C (second compound 10 µM, first compound 3.16 µM) 3.58% | viability, T/C (second compound 10 µM, first compound 10 µM) 0.16%
4750 nM: IC50 (second compound 0.0316 µM)
inactive: viability, T/C (second compound 0.0316 µM, first compound 0.0316 µM) 99.5% | viability, T/C (second compound 0.0316 µM, first compound 0.1 µM) 88.1% | viability, T/C (second compound 0.0316 µM, first compound 0.316 µM) 86% | viability, T/C (second compound 0.0316 µM, first compound 1 µM) 108% | viability, T/C (second compound 0.0316 µM, first compound 3.16 µM) 74.1% | viability, T/C (second compound 0.1 µM, first compound 0.0316 µM) 84.1% | viability, T/C (second compound 0.1 µM, first compound 0.1 µM) 81.3% | viability, T/C (second compound 0.1 µM, first compound 0.316 µM) 88.3% | viability, T/C (second compound 0.1 µM, first compound 1 µM) 87.8% | viability, T/C (second compound 0.1 µM, first compound 3.16 µM) 83.1% | viability, T/C (second compound 0.316 µM, first compound 0.0316 µM) 26.2% | viability, T/C (second compound 0.316 µM, first compound 0.1 µM) 26.1% | viability, T/C (second compound 0.316 µM, first compound 0.316 µM) 26.7% | viability, T/C (second compound 0.316 µM, first compound 1 µM) 28.9% | viability, T/C (second compound 0.316 µM, first compound 3.16 µM) 24.3% | viability, T/C (second compound 0.316 µM, first compound 10 µM) 1.02%
< 31.6 nM: IC50 (second compound 0.316 µM) | IC50 (second compound 1 µM) | IC50 (second compound 3.16 µM) | IC50 (second compound 10 µM)
5030 nM: IC50 (second compound 0.1 µM)
